Assay results: ChEMBL document CHEMBL6153110, “Peptide Double-Stapling and Arginine N-Glycosylation Triggered the Development of Therapeutic Antimicrobial Peptides Capable of Killing Drug-Resistant Bacteria in Mice” (J Med Chem, 2025)
In brackets after ≈: the same amount, converted by molar mass. Starred links: 1 amine or outer side, 2 acyl side, 3 side chain; linkers in the order of their positions; H or OH if unused. Positions of bridges follow the written chain, without caps; N, C: chain ends. Non-standard residues stand in square brackets, D forms with d. Residues, ends and D or L forms follow the SMILES beside them. X2 = CC(=O)N[C@@H]1[C@@H](O)[C@H](O)[C@@H](CO)O[C@H]1NC(=N)NCCC[C@H](N[*:1])C(=O)[*:2]; S5 = C=CCCC[C@](C)(N)C(=O)O

Legend:
[1] = Hemolytic activity in BALB/c mouse red blood cells assessed as hemolysis incubated for 1 hrs; format: toxicity, cell-based, Erythrocyte; details: read-out: HD50
Pseudomonas aeruginosa = assay: Antimicrobial activity against Pseudomonas aeruginosa ATCC 27853 assessed as growth inhibition measured after 8 hrs incubation by standard broth dilution assay; format: functional
Staphylococcus aureus = assay: Antimicrobial activity against methicillin-resistant Staphylococcus aureus ATCC 43300 assessed as growth inhibition measured after 8 hrs incubation by standard broth dilution assay; format: functional
Klebsiella pneumoniae = assay: Antimicrobial activity against Klebsiella pneumoniae ATCC 13883 assessed as growth inhibition measured after 8 hrs incubation by standard broth dilution assay; format: functional
Streptococcus pneumoniae = assay: Antimicrobial activity against Streptococcus pneumoniae ATCC 49619 assessed as growth inhibition measured after 8 hrs incubation by standard broth dilution assay; format: functional

Row | Structure (SMILES) | HC50 at 1 h [1] [µg/mL] | MIC (Pseudomonas aeruginosa) [µg/mL] | MIC (Staphylococcus aureus) [µg/mL] | MIC (Klebsiella pneumoniae) [µg/mL] | MIC (Streptococcus pneumoniae) [µg/mL]
1 | CC(=O)N[C@@H](CCCCN)C(=O)N[C@@H](CCCCN)C(=O)N[C@@H](CCCNC(=N)N)C(=O)N[C@H](C(=O)N[C@@H](Cc1c[nH]c2ccccc12)C(=O)N[C@@H](CCCCN)C(=O)N[C@@H](CCCNC(=N)N)C(=O)N[C@H](C(=O)N[C@@H](Cc1ccccc1)C(=O)N[C@@H](CCCCN)C(=O)N[C@@H](CC(C)C)C(=O)N[C@@H](CC(C)C)C(=O)N[C@@H](CCCCN)C(=O)N[C@@]1(C)CCC/C=C\CCC[C@@](C)(C(=O)N[C@@H](CC(C)C)C(=O)N[C@@H](CCCCN)C(=O)N[C@@H](CCCCN)C(=O)N2CCC[C@H]2C(=O)N[C@H](C(=O)N[C@@H](CCCNC(=N)N)C(N)=O)C(C)C)NC(=O)[C@H](CCCNC(=N)N)NC(=O)[C@H](Cc2c[nH]c3ccccc23)NC(=O)[C@H](Cc2ccc(O)cc2)NC1=O)C(C)C)C(C)C (Ac-KKRVWKRVFKLLK[S5]YWR[S5]LKKPVR-NH2; staple (Z) 14-18) | 19.2 | 2.9 (≈ 0.893 µM) | 4.9 (≈ 1.51 µM) | 4.9 (≈ 1.51 µM) | 2.4 (≈ 0.739 µM)
2 | CC(=O)N[C@@H](CC(C)C)C(=O)N[C@@H](CCCCN)C(=O)N[C@@H](CCCNC(=N)N)C(=O)N[C@H](C(=O)N[C@@H](Cc1c[nH]c2ccccc12)C(=O)N[C@@H](CCCCN)C(=O)N[C@@H](CCCNC(=N)N)C(=O)N[C@@H](CCCCN)C(=O)N[C@@H](Cc1ccccc1)C(=O)N[C@@H](CCCCN)C(=O)N[C@@H](CC(C)C)C(=O)N[C@@H](CC(C)C)C(=O)N[C@@H](CCCCN)C(=O)N[C@@]1(C)CCC/C=C\CCC[C@@](C)(C(=O)N[C@@H](CC(C)C)C(=O)N[C@@H](CCCCN)C(=O)N[C@@H](CCCCN)C(=O)N2CCC[C@H]2C(=O)N[C@H](C(=O)N[C@@H](CCCNC(=N)N)C(N)=O)C(C)C)NC(=O)[C@H](CCCNC(=N)N)NC(=O)[C@H](Cc2c[nH]c3ccccc23)NC(=O)[C@H](Cc2ccc(O)cc2)NC1=O)C(C)C (Ac-LKRVWKRKFKLLK[S5]YWR[S5]LKKPVR-NH2; staple (Z) 14-18) | 32.3 | 5 (≈ 1.53 µM) | 10.1 (≈ 3.1 µM) | 10.1 (≈ 3.1 µM) | 2.4 (≈ 0.736 µM)
3 | CC(=O)N[C@@H](CC(C)C)C(=O)N[C@@H](CCCCN)C(=O)N[C@@H](CCCNC(=N)N)C(=O)N[C@H](C(=O)N[C@@H](Cc1c[nH]c2ccccc12)C(=O)N[C@@H](CCCCN)C(=O)N[C@@H](CCCNC(=N)N)C(=O)N[C@H](C(=O)N[C@@H](Cc1ccccc1)C(=O)N[C@@H](CCCCN)C(=O)N[C@@H](CC(C)C)C(=O)N[C@@H](CC(C)C)C(=O)N[C@@H](CCCCN)C(=O)N[C@@]1(C)CCC/C=C\CCC[C@@](C)(C(=O)N[C@@H](CC(C)C)C(=O)N[C@@H](CCCCN)C(=O)N[C@@H](CCCCN)C(=O)N2CCC[C@H]2C(=O)N[C@H](C(=O)N[C@@H](CCCNC(=N)N)C(N)=O)C(C)C)NC(=O)[C@H](CCCNC(=N)N)NC(=O)[C@H](CCCCN)NC(=O)[C@H](Cc2ccc(O)cc2)NC1=O)C(C)C)C(C)C (Ac-LKRVWKRVFKLLK[S5]YKR[S5]LKKPVR-NH2; staple (Z) 14-18) | 21 | 5 (≈ 1.57 µM) | 4.9 (≈ 1.54 µM) | 38 (≈ 12 µM) | 4.7 (≈ 1.48 µM)
4 | CC(=O)N[C@@H](CCCCN)C(=O)N[C@@H](CCCCN)C(=O)N[C@@H](CCCNC(=N)N)C(=O)N[C@H](C(=O)N[C@@H](CCCCN)C(=O)N[C@@H](CCCCN)C(=O)N[C@@H](CCCNC(=N)N)C(=O)N[C@@]1(C)CCC/C=C\CCC[C@@](C)(C(=O)N[C@@H](CCCCN)C(=O)N[C@@]2(C)CCC/C=C\CCC[C@@](C)(C(=O)N[C@@H](CC(C)C)C(=O)N[C@@H](CCCCN)C(=O)N[C@@H](CCCCN)C(=O)N3CCC[C@H]3C(=O)N[C@H](C(=O)N[C@@H](CCCNC(=N)N)C(N)=O)C(C)C)NC(=O)[C@H](CCCNC(=N)N)NC(=O)[C@H](Cc3c[nH]c4ccccc34)NC(=O)[C@H](Cc3ccc(O)cc3)NC2=O)NC(=O)[C@H](CC(C)C)NC(=O)[C@H](CCCCN)NC(=O)[C@H](Cc2ccccc2)NC1=O)C(C)C (Ac-KKRVKKR[S5]FKL[S5]K[S5]YWR[S5]LKKPVR-NH2; staple (Z) 8-12, 14-18) | 56.3 | 2.6 (≈ 0.805 µM) | 2.5 (≈ 0.774 µM) | 2.5 (≈ 0.774 µM) | 2.4 (≈ 0.743 µM)
5 | CC(=O)N[C@@H]1[C@@H](O)[C@H](O)[C@@H](CO)O[C@H]1NC(=N)NCCC[C@H](NC(=O)[C@@H](NC(=O)[C@@H]1CCCN1C(=O)[C@H](CCCCN)NC(=O)[C@H](CCCCN)NC(=O)[C@H](CC(C)C)NC(=O)[C@]1(C)CCC/C=C\CCC[C@](C)(NC(=O)[C@H](CCCCN)NC(=O)[C@]2(C)CCC/C=C\CCC[C@](C)(NC(=O)[C@H](CCCNC(=N)N)NC(=O)[C@H](CCCCN)NC(=O)[C@H](CCCCN)NC(=O)[C@@H](NC(=O)[C@H](CCCNC(=N)N)NC(=O)[C@H](CCCCN)NC(=O)[C@H](CCCCN)NC(C)=O)C(C)C)C(=O)N[C@@H](Cc3ccccc3)C(=O)N[C@@H](CCCCN)C(=O)N[C@@H](CC(C)C)C(=O)N2)C(=O)N[C@@H](Cc2ccc(O)cc2)C(=O)N[C@@H](Cc2c[nH]c3ccccc23)C(=O)N[C@@H](CCCNC(=N)N)C(=O)N1)C(C)C)C(N)=O (Ac-KKRVKKR[S5]FKL[S5]K[S5]YWR[S5]LKKPV[X2]-NH2; staple (Z) 8-12, 14-18) | 82.2 | 2.6 (≈ 0.758 µM) | 2.5 (≈ 0.729 µM) | 2.5 (≈ 0.729 µM) | 2.4 (≈ 0.699 µM)
6 | CC(=O)N[C@@H](CC(C)C)C(=O)N[C@@H](CCCCN)C(=O)N[C@@H](CCCNC(=N)N)C(=O)N[C@H](C(=O)N[C@@H](Cc1c[nH]c2ccccc12)C(=O)N[C@@H](CCCCN)C(=O)N[C@@H](CCCNC(=N)N)C(=O)N[C@H](C(=O)N[C@@H](Cc1ccccc1)C(=O)N[C@@H](CCCCN)C(=O)N[C@@H](CC(C)C)C(=O)N[C@@H](CC(C)C)C(=O)N[C@@H](CCCCN)C(=O)N[C@@]1(C)CCC/C=C\CCC[C@@](C)(C(=O)N[C@@H](CC(C)C)C(=O)N[C@@H](CCCCN)C(=O)N[C@@H](CCCCN)C(=O)N2CCC[C@H]2C(=O)N[C@H](C(=O)N[C@@H](CCCNC(=N)N)C(N)=O)C(C)C)NC(=O)[C@H](CCCNC(=N)N)NC(=O)[C@H](Cc2c[nH]c3ccccc23)NC(=O)[C@H](Cc2ccc(O)cc2)NC1=O)C(C)C)C(C)C (Ac-LKRVWKRVFKLLK[S5]YWR[S5]LKKPVR-NH2; staple (Z) 14-18) | 12.2 | 5 (≈ 1.55 µM) | 4.9 (≈ 1.52 µM) | 2.5 (≈ 0.773 µM) | 2.4 (≈ 0.742 µM)
7 | CC(=O)N[C@@H](CCCCN)C(=O)N[C@@H](CCCCN)C(=O)N[C@@H](CCCNC(=N)N)C(=O)N[C@H](C(=O)N[C@@]1(C)CCC/C=C\CCC[C@@](C)(C(=O)N[C@@H](CCCCN)C(=O)N[C@@H](CC(C)C)C(=O)N[C@@H](CC(C)C)C(=O)N[C@@H](CCCCN)C(=O)N[C@@]2(C)CCC/C=C\CCC[C@@](C)(C(=O)N[C@@H](CC(C)C)C(=O)N[C@@H](CCCCN)C(=O)N[C@@H](CCCCN)C(=O)N3CCC[C@H]3C(=O)N[C@H](C(=O)N[C@@H](CCCNC(=N)N)C(N)=O)C(C)C)NC(=O)[C@H](CCCNC(=N)N)NC(=O)[C@H](Cc3c[nH]c4ccccc34)NC(=O)[C@H](Cc3ccc(O)cc3)NC2=O)NC(=O)[C@H](C(C)C)NC(=O)[C@H](CCCNC(=N)N)NC(=O)[C@H](CCCCN)NC1=O)C(C)C (Ac-KKRV[S5]KRV[S5]KLLK[S5]YWR[S5]LKKPVR-NH2; staple (Z) 5-9, 14-18) | 13.2 | 5 (≈ 1.58 µM) | 4.9 (≈ 1.55 µM) | 4.9 (≈ 1.55 µM) | 4.7 (≈ 1.48 µM)
8 | CC(=O)N[C@@H](CC(C)C)C(=O)N[C@@H](CCCCN)C(=O)N[C@@H](CCCNC(=N)N)C(=O)N[C@H](C(=O)N[C@@H](Cc1c[nH]c2ccccc12)C(=O)N[C@@H](CCCCN)C(=O)N[C@@H](CCCNC(=N)N)C(=O)N[C@H](C(=O)N[C@@H](CCCCN)C(=O)N[C@@H](CCCCN)C(=O)N[C@@H](CC(C)C)C(=O)N[C@@H](CC(C)C)C(=O)N[C@@H](CCCCN)C(=O)N[C@@]1(C)CCC/C=C\CCC[C@@](C)(C(=O)N[C@@H](CC(C)C)C(=O)N[C@@H](CCCCN)C(=O)N[C@@H](CCCCN)C(=O)N2CCC[C@H]2C(=O)N[C@H](C(=O)N[C@@H](CCCNC(=N)N)C(N)=O)C(C)C)NC(=O)[C@H](CCCNC(=N)N)NC(=O)[C@H](Cc2c[nH]c3ccccc23)NC(=O)[C@H](Cc2ccc(O)cc2)NC1=O)C(C)C)C(C)C (Ac-LKRVWKRVKKLLK[S5]YWR[S5]LKKPVR-NH2; staple (Z) 14-18) | 38 | 5 (≈ 1.56 µM) | 4.9 (≈ 1.52 µM) | 19.2 (≈ 5.97 µM) | 2.4 (≈ 0.747 µM)
9 | CC(=O)N[C@@H](CCCCN)C(=O)N[C@@H](CCCCN)C(=O)N[C@@H](CCCNC(=N)N)C(=O)N[C@@H](CCCCN)C(=O)N[C@@H](Cc1c[nH]c2ccccc12)C(=O)N[C@@H](CCCCN)C(=O)N[C@@H](CCCNC(=N)N)C(=O)N[C@@]1(C)CCC/C=C\CCC[C@@](C)(C(=O)N[C@@H](CCCCN)C(=O)N[C@@]2(C)CCC/C=C\CCC[C@@](C)(C(=O)N[C@@H](CC(C)C)C(=O)N[C@@H](CCCCN)C(=O)N[C@@H](CCCCN)C(=O)N3CCC[C@H]3C(=O)N[C@H](C(=O)N[C@@H](CCCNC(=N)N)C(N)=O)C(C)C)NC(=O)[C@H](CCCNC(=N)N)NC(=O)[C@H](Cc3c[nH]c4ccccc34)NC(=O)[C@H](Cc3ccc(O)cc3)NC2=O)NC(=O)[C@H](CC(C)C)NC(=O)[C@H](CCCCN)NC(=O)[C@H](Cc2ccccc2)NC1=O (Ac-KKRKWKR[S5]FKL[S5]K[S5]YWR[S5]LKKPVR-NH2; staple (Z) 8-12, 14-18) | 26.5 | 2.6 (≈ 0.784 µM) | 2.5 (≈ 0.754 µM) | 10.1 (≈ 3.05 µM) | 2.4 (≈ 0.724 µM)
10 | CC(=O)N[C@@H](CC(C)C)C(=O)N[C@@H](CCCCN)C(=O)N[C@@H](CCCNC(=N)N)C(=O)N[C@H](C(=O)N[C@@H](Cc1c[nH]c2ccccc12)C(=O)N[C@@H](CCCCN)C(=O)N[C@@H](CCCNC(=N)N)C(=O)N[C@H](C(=O)N[C@@H](Cc1ccccc1)C(=O)N[C@@H](CCCCN)C(=O)N[C@@H](CC(C)C)C(=O)N[C@@H](CC(C)C)C(=O)N[C@@H](CCCCN)C(=O)N[C@@]1(C)CCC/C=C\CCC[C@@](C)(C(=O)N[C@@H](CCCCN)C(=O)N[C@@H](CCCCN)C(=O)N[C@@H](CCCCN)C(=O)N2CCC[C@H]2C(=O)N[C@H](C(=O)N[C@@H](CCCNC(=N)N)C(N)=O)C(C)C)NC(=O)[C@H](CCCNC(=N)N)NC(=O)[C@H](Cc2c[nH]c3ccccc23)NC(=O)[C@H](Cc2ccc(O)cc2)NC1=O)C(C)C)C(C)C (Ac-LKRVWKRVFKLLK[S5]YWR[S5]KKKPVR-NH2; staple (Z) 14-18) | 10.8 | 5 (≈ 1.54 µM) | 10.1 (≈ 3.11 µM) | 19 (≈ 5.85 µM) | 4.7 (≈ 1.45 µM)
